Consider 14 compounds from ChEMBL document CHEMBL1139242, “Peptide deformylase inhibitors of Mycobacterium tuberculosis: synthesis, structural investigations, and biological results” (Bioorg Med Chem Lett, 2008).

Values after ≈ are worked out from the molar mass of the structure shown.

For this experiment, the system named is Mycobacterium tuberculosis. The experiment is described as follows: Antimicrobial activity against Mycobacterium bovis BCG after 4 days by alamar blue assay. The class given is functional. Particulars: variant bovis BCG, 96 h. A general note: Alamar Blue is a resazurin reagent that responds to reducing activity.

For orientation: MIC means the least concentration at which growth counts as inhibited. A high value points to weaker potency. For the compound `CCCC[C@H](CN(O)C=O)C(=O)N1CCC[C@H]1c1nc2ccccc2[nH]1`, the MIC is 0.6 µg/mL (≈ 1.67 µM). With `O=CN(O)C[C@@H](CC1CC1)C(=O)N1CCC[C@H]1c1nc2ccccc2o1`, inhibition of growth (MIC) required 1.2 µg/mL (≈ 3.36 µM). `CCCC[C@H](CC(=O)O)C(=O)N1CCC[C@H]1c1nc2ccccc2o1`: the MIC stood at 9 µg/mL (≈ 26.1 µM). Turning to `CCCC[C@H](C(=O)NO)C(=O)N1CCC[C@H]1c1nc2ccccc2[nH]1`, the lowest concentration to inhibit growth (MIC) was 4.5 µg/mL (≈ 13.1 µM). `CCCCC[C@H](CN(O)C=O)C(=O)N1CCC[C@H]1c1nc2ccccc2o1` came in with an MIC of 0.6 µg/mL (≈ 1.61 µM). Under `CCC[C@H](CN(O)C=O)C(=O)N1CCC[C@H]1c1nc2ccccc2o1` stands 4.5 µg/mL (≈ 13 µM). `O=CN(O)C[C@@H](Cc1ccccc1)C(=O)N1CCC[C@H]1c1nc2ccccc2[nH]1`: the minimal inhibitory concentration (MIC) turned out to be 9 µg/mL (≈ 22.9 µM). `CCC[C@H](CN(O)C=O)C(=O)N1CCC[C@H]1c1nc2ccccc2[nH]1`: the MIC worked out at 9 µg/mL (≈ 26.1 µM).

As for `CCCCC[C@H](CN(O)C=O)C(=O)N1CCC[C@H]1c1nc2ccccc2[nH]1`, the MIC turned out to be 1.2 µg/mL (≈ 3.22 µM).

The compound `CCCC[C@H](CC(=O)O)C(=O)N1CCC[C@H]1c1nc2ccccc2[nH]1` displayed an MIC of 9 µg/mL (≈ 26.2 µM). Compound `CCCC[C@H](CN(O)C=O)C(=O)N1CCC[C@H]1c1nc2ccccc2o1` returned an MIC of 0.6 µg/mL (≈ 1.67 µM). Consider `CCCC[C@H](C(=O)NO)C(=O)N1CCC[C@H]1c1nc2ccccc2o1`, for which it took 4.5 µg/mL (≈ 13 µM) to inhibit growth (MIC). The compound `O=CN(O)C[C@@H](Cc1ccccc1)C(=O)N1CCC[C@H]1c1nc2ccccc2o1` showed an MIC of 9 µg/mL (≈ 22.9 µM). `O=CN(O)C[C@@H](CC1CC1)C(=O)N1CCC[C@H]1c1nc2ccccc2[nH]1` registered a minimum inhibitory concentration (MIC) of 1.2 µg/mL (≈ 3.37 µM).
